Measurements as given in US20080295189A1, “Construction of Arterial Occlusive Disease Animal Model” (JAPAN HEALTH SCIENCES FOUNDATION, priority 2004, published 2008).

Tested on: blood of a crab-eating macaque
Assay: Degree of coagulation of blood with coagulating agents (autologous blood clot formation)
Details: blood in catheter, incubated 24 hours at 37° C., versus blood coagulated alone
Protocol: As coagulating agents, ADP and thrombin were used to examine the degree of coagulation. ADP was used at concentrations of 30 and 100 μg/ml (without thrombin at both concentrations), and thrombin at concentrations of 0.5 and 10% (w/v) (without ADP at both concentrations). Blood was drawn from the ventral tail artery of a crab-eating macaque, and was placed into a catheter with or without adding a coagulating agent, incubated for 24 hours at 37° C., and then pushed out to observe the condition of coagulation. As control was used a sample to which neither of the coagulating agents was added (blood which was coagulated alone). The results were shown in the left panel of FIG. 3. […] Next, a blood clot which was obtained by incubating blood for 24 hours at 37° C. with 100 μg of ADP and 10% (w/v) of thrombin was immersed in a povidone-iodine solution, followed by X-ray photography. As shown in the right panel of FIG. 3, there was observed a shade corresponding to the blood clot, allowing one to identify the location of a blood clot be means of an X-ray photographic apparatus.

Compound	condition of coagulation (ADP 30 and 100 μg/ml without thrombin)	condition of coagulation (thrombin 0.5 and 10% (w/v) without ADP)
Nc1ncnc2c1ncn2[C@@H]1O[C@H](COP(=O)(O)OP(=O)(O)O)[C@@H](O)[C@H]1O [ADP, adenosine diphosphate]	the higher concentration of ADP, the better coagulation took place	
Thrombin		comparable coagulation at both 0.5 and 10% (w/v)
